Assay results from patent US20030144477A1, “Immunodominant acetylcholine receptor alpha subunit peptide: MHC complexes” (Corixa Corporation, priority 2001, published 2003).
Peptide text beside a SMILES is read from it.

Experiments:
[1] = target: HLA-DR3 (a mix of DRB1*0301 and DRB3*0101); experiment: DELFIA competitive binding assay against biotinylated MBP 84-102, solubilized HLA-DR3; set-up: species or system human; details: for IC50: competitive binding to solubilized HLA-DR3, pH 5.5, vs biotinylated MBP 84-102; for affinity for HLA-DR3: in words, from IC50
Source text: (§1) Important peptides in MG can be identified, for example, by screening a set of overlapping AChR peptides for binding to HLA-DR2 and HLA-DR3. The binding affinity of a peptide to the MHC compound can be measured using a variety of binding assays known to those of skill in the art. An example of suitable binding assay is the europium-based competitive binding assay (see, e.g., Tompkins et al. (1993) J. Immunol. Methods 163:209-216). Additionally, the capacity of the peptides of the invention to induce a T cell response can be determined using a variety of standard methods, known to those of skill in the art, as described below.
(§2) A set of 68 overlapping AChRα peptides (14 mer with 7 amino acids overlapping) was tested by dissociation-enhanced lenthanide fluoroimmunoassay (“DELFIA”) competitive binding assay for their relative affinity to […]. […] The sequence of the AChRα subunit is shown with each of the transmembrane regions (M1-M4) indicated by a shaded box.) Ten-fold dilutions (preferably 1-100,000 nM) of unlabeled AChRα peptides were co-incubated at pH 5.5 with the biotinylated myelin basic protein peptide MBP 84-102, and the IC50 of binding to solubilized HLA-DR2 (a mix of DRB1*1501 and DRB5*0101) or HLA-DR3 (a mix of DRB1*0301 and DRB3*0101) was measured. Measurement of the IC50 is preferably done by europium-streptavidin dissociation-enhanced lenthanide fluoroimmunoassay (DELFIA) and the IC50 typically calculated by four parameter fit analysis with the software program SOFTmax Pro. FIG. 2 lists the IC50s of each AChRα peptide binding to HLA-DR2 and HLA-DR3.

HLA-DR1 = experiment: DELFIA europium-based competitive binding assay, HLA-DR1; set-up: species or system human; details: competitive binding to HLA-DR1
[2] = target: solubilized DR4 (HLA-DR4); experiment: europium-based competitive binding assay using solubilized DR4; set-up: species or system human; details: competitive binding to solubilized DR4
Procedure: as §2
In addition, the relative affinity for HLA-DR4 of a set of sixty nine synthetic overlapping peptides of AchRα (14 mer with 7 amino acids overlapping) was measured by a europium-based competitive binding assay using solubilized DR4. The concentration of AchR peptides required to inhibit 50% binding of a known DR4 binding peptide was calculated for each peptide. High affinity peptides were identified based on their IC50 value.

[3] = target: solubilized HLA-DR2 (a mix of DRB1*1501 and DRB5*0101) (Homo sapiens, UniProt P01903+P01911+Q30154); experiment: DELFIA competitive binding assay against biotinylated MBP 84-102, solubilized HLA-DR2; details: for relative affinity for HLA-DR2: in words, from IC50 / 1/IC50 plot
Source text: as §1
A set of 68 overlapping AChRα peptides (14 mer with 7 amino acids overlapping) was tested by dissociation-enhanced lenthanide fluoroimmunoassay (“DELFIA”) competitive binding assay for their relative affinity to HLA-DR4. […] Measurement of the IC50 is preferably done by europium-streptavidin dissociation-enhanced lenthanide fluoroimmunoassay (DELFIA) and the IC50 typically calculated by four parameter fit analysis with the software program SOFTmax Pro.

[4] = system: PBMCs from MG patients and normal healthy individuals; experiment: modified ELISPOT assay of T cell reactivity (γ-IFN spots, reactive index); assay type: cell-based, human; details: reactive index above two; HLA type ignored; 9 MG patients vs 30 normals
Source text: In addition, a modified ELISPOT assay, termed the Clonal Expansion ELISA-Spot (or CEE-SPOT) assay can also be used in the context of the present invention. In the CEE-SPOT assay, PBMCs are stimulated with antigen for an appropriate amount of time (e.g., 7 days) to promote proliferation of the antigen-specific T cells prior to re-stimulation and lymphokine capture (e.g., on day 10). […] The production of lymphokines can be measured using this assay, including, e.g., IL-2, IL-4, etc. Typically, lymphokine is captured on a filter, preferably a PVDF filter to improve the background and intensity of the spots. Spot counting is typically carried out using videocamera imaging and computer analysis. This type of assay can also be used to identify epitopes derived from natural processing, by first stimulating T cells with the whole protein and then re-stimulating them with peptides derived from the protein.
T cell reactivity of the above peptides to patient and normal healthy individual PBMCs was measured by modified ELISPOT assay. PBMCs obtained from 30 normals and 9 MG patients were included in this study. The above peptides along with TT/PPD as positive control and media as negative control were tested for T cell reactivity. […] Antigen specific cell stimulation profile for each antigen was measured by the secretion of γ-IFN detected as spots using a pair of anti-γIFN antibodies set. […]

HLA-DR2 = experiment: IC50
Source text: Table printed on a drawing sheet, FIGURE 4
The best fit of AChRα peptide sequences to published HLA-DR2 motifs is indicated along with the IC50 value.
First copying reader's note: Sequences are printed with horizontal offsets as a motif alignment; the offsets are not reproduced in the grid.

## CC(C)C[C@H](NC(=O)[C@H](CCCCN)NC(=O)[C@H](C)NC(=O)[C@@H](NC(=O)[C@@H](N)CC(C)C)C(C)C)C(=O)N[C@@H](Cc1ccccc1)C(=O)N[C@@H](CCCCN)C(=O)N[C@@H](CC(=O)O)C(=O)N[C@@H](Cc1ccc(O)cc1)C(=O)N[C@@H](CO)C(=O)N[C@@H](CO)C(=O)N[C@H](C(=O)N[C@H](C(=O)N[C@@H](CCCNC(=N)N)C(=O)N1CCC[C@H]1C(=O)N[C@H](C(=O)O)C(C)C)C(C)C)C(C)C [AChRα 7-22]
[1]
  IC50: 6.15 µM
  affinity for HLA-DR3: high affinity
HLA-DR1
  IC50: > 100 µM

## CC[C@H](C)[C@H](NC(=O)[C@H](CCC(N)=O)NC(=O)[C@H](CC(N)=O)NC(=O)[C@@H](NC(=O)[C@H](CCC(=O)O)NC(=O)[C@H](CC(=O)O)NC(=O)[C@@H](NC(=O)[C@H](CC(N)=O)NC(=O)[C@@H](NC(=O)[C@H](CC(C)C)NC(=O)[C@H](CCC(N)=O)NC(=O)[C@@H](NC(=O)[C@H](CC(C)C)NC(=O)[C@@H](N)CCC(N)=O)[C@@H](C)CC)[C@@H](C)CC)C(C)C)C(C)C)C(=O)O [AChRα 36-49] (H-QLIQLINVDEVNQI-OH; N-terminus and C-terminus assumed)
[2]
  IC50: 3.63 µM
[1]
  IC50: 7.3 µM
  affinity for HLA-DR3: high affinity
HLA-DR1
  IC50: 11.2 µM
[3]; competitive binding to solubilized HLA-DR2, pH 5.5, vs biotinylated MBP 84-102
  IC50: 11 µM
[4]
  per cent of patients that show reactivity compared with per cent of normal healthy individuals: approximately twice

## CC[C@H](C)[C@H](NC(=O)[C@H](Cc1ccccc1)NC(=O)[C@H](Cc1ccc(O)cc1)NC(=O)[C@H](CC(C)C)NC(=O)[C@@H]1CCCN1C(=O)[C@H](CC(C)C)NC(=O)[C@H](CCCNC(=N)N)NC(=O)[C@H](CCC(N)=O)NC(=O)[C@H](CCSC)NC(=O)[C@@H](NC(=O)[C@H](Cc1ccccc1)NC(=O)[C@@H](N)Cc1c[nH]cn1)C(C)C)C(=O)N[C@H](C(=O)N[C@@H](CC(N)=O)C(=O)O)C(C)C [AChRα 204-217]
[1]
  IC50: 71.3 µM
HLA-DR1
  IC50: 1.75 µM

## DTPYLDITYHFVMQRLPL [AChRα 195-212]
[1]
  affinity for HLA-DR3: high affinity

## I P N I M F F S T M K R P S R E K Q (IPNIMFFSTMKRPSREKQ) [AChRα 320-337]
HLA-DR2
  IC50: 6.61 µM

## MKLGTWTYDGSVVAINPESD [AChRα 144-163]
[1]
  affinity for HLA-DR3: high affinity

## NWVRKVFIDTIPNIMFFS [AChRα 310-327, AChRα subunit peptide fragment, residues 310-327]
[3]
  relative affinity for HLA-DR2: high relative affinity

## TGHITWTPPAIFKS [AChRα 113-126, AChRα subunit peptide fragment, residues 113-126] [listing 1 of 2 here]
HLA-DR2
  IC50: 2.83 µM

## TGHITWTPPAIFKS [AChRα 113-126, AChRα subunit peptide fragment, residues 113-126] [listing 2 of 2 here]
[3]
  relative affinity for HLA-DR2: high relative affinity

## V E V T V G L Q L I Q L I N (VEVTVGLQLIQLIN) [AChRα 27-42]
HLA-DR2
  IC50: 9.18 µM

## V I I P C L L F S F L T G L (VIIPCLLFSFLTGL) [AChRα 218-231]
HLA-DR2
  IC50: 6.79 µM
